Results published in patent US4740233A, “Substituted 1,2,4-triazolo[1,5-a]-pyrimidine-2-sulfonamides and compositions and methods of controlling undesired vegetation and suppressing the nitrification of ammonium nitrogen in soil” (The Dow Chemical Company, priority 1986, dated 1988).

Assays:
soybean [1] = assay: Postemergent control of plant species; type: in vivo, Glycine max.; conditions: Glycine max, post-emergence, 336 h, read-out: percent postemergent control
In short: (§1)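 Spray emulsion: acetone stock at twice final concentration plus equal volume water with 0.1% wetting agent, applied to separated greenhouse beds at 2-4 leaf stage. Assessed at ~two weeks; score reflects growth reduction compared with untreated plants.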

crabgrass [2] = assay: Postemergent control of plant species; type: in vivo, Digitaria spp.; conditions: Digitaria sanguinalis, post-emergence, 336 h, read-out: percent postemergent control
In short: as §1

sorghum = assay: Postemergent control of plant species; type: in vivo, Sorghum vulgare; conditions: Sorghum, post-emergence, 336 h, read-out: percent postemergent control
In short: as §1

annual morning glory = assay: Postemergent control of plant species; type: in vivo, Ipomoea spp.; conditions: Ipomoea, post-emergence, 336 h, read-out: percent postemergent control
In short: as §1

yellow nutsedge [3] = assay: Postemergent control of plant species; type: in vivo, Cyperus esculentus; conditions: Cyperus, post-emergence, 336 h, read-out: percent postemergent control
In short: as §1

wheat = assay: Preemergent control of plant species; type: in vivo, Triticum aestivum; conditions: Triticum aestivum, pre-emergence, 336 h; 0.25 lb/acre; read-out: percent preemergent control
In short: (§2)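 Test compositions were applied evenly to the surface of freshly seeded soil beds and kept under greenhouse conditions for two weeks. Percent control reflects growth reduction compared with water-treated beds of the same species.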

yellow foxtail [4] = assay: Postemergent control of plant species; type: in vivo, Setaria lutescens; conditions: Setaria, post-emergence, 336 h, read-out: percent postemergent control
In short: as §1

corn = assay: Postemergent control of plant species; type: in vivo, Zea mays; conditions: Zea mays, post-emergence, 336 h, read-out: percent postemergent control
In short: as §1

velvetleaf [5] = assay: Postemergent control of plant species; type: in vivo, Abutilon theophrasti; conditions: Abutilon theophrasti, post-emergence, 336 h, read-out: percent postemergent control
In short: as §1

johnson grass [6] = assay: Preemergent control of plant species; type: in vivo, Sorghum halepense; conditions: Sorghum halepense, pre-emergence, 336 h; 0.25 lb/acre; read-out: percent preemergent control
In short: as §2

wild oats [7] = assay: Postemergent control of plant species; type: in vivo, Avena fatua; conditions: Avena fatua, post-emergence, 336 h, read-out: percent postemergent control
In short: as §1

crabgrass [8] = assay: Preemergent control of plant species; type: in vivo, Digitaria spp.; conditions: Digitaria sanguinalis, pre-emergence, 336 h; 0.25 lb/acre; read-out: percent preemergent control
In short: as §2

johnson grass [9] = assay: Postemergent control of plant species; type: in vivo, Sorghum halepense; conditions: Sorghum halepense, post-emergence, 336 h, read-out: percent postemergent control
In short: as §1

pigweed [10] = assay: Preemergent control of plant species; type: in vivo, Amaranthus spp.; conditions: Amaranthus retroflexus, pre-emergence, 336 h; 0.25 lb/acre; read-out: percent preemergent control
In short: as §2

velvetleaf [11] = assay: Preemergent control of plant species; type: in vivo, Abutilon theophrasti; conditions: Abutilon theophrasti, pre-emergence, 336 h; 0.25 lb/acre; read-out: percent preemergent control
In short: as §2

rape [12] = assay: Postemergent control of plant species; type: in vivo, Brassica napus; conditions: Brassica napus, post-emergence, 336 h, read-out: percent postemergent control
In short: as §1

barnyardgrass = assay: Postemergent control of plant species; type: in vivo, Echinochloa crusgalli; conditions: Echinochloa crus-galli, post-emergence, 336 h, read-out: percent postemergent control
In short: as §1

cotton = assay: Preemergent control of plant species; type: in vivo, Gossypium spp.; conditions: Gossypium hirsutum, pre-emergence, 336 h; 0.25 lb/acre; read-out: percent preemergent control
In short: as §2

yellow nutsedge [13] = assay: Preemergent control of plant species; type: in vivo, Cyperus esculentus; conditions: Cyperus, pre-emergence, 336 h; 0.25 lb/acre; read-out: percent preemergent control
In short: as §2

rice [14] = assay: Postemergent control of plant species; type: in vivo, Oryza sativa; conditions: Oryza sativa, post-emergence, 336 h, read-out: percent postemergent control
In short: as §1

rice [15] = assay: Preemergent control of plant species; type: in vivo, Oryza sativa; conditions: Oryza sativa, pre-emergence, 336 h; 0.25 lb/acre; read-out: percent preemergent control
In short: as §2

pigweed [16] = assay: Postemergent control of plant species; type: in vivo, Amaranthus spp.; conditions: Amaranthus retroflexus, post-emergence, 336 h, read-out: percent postemergent control
In short: as §1

jimsonweed = assay: Postemergent control of plant species; type: in vivo, Datura stramonium; conditions: Datura stramonium, post-emergence, 336 h, read-out: percent postemergent control
In short: as §1

rape [17] = assay: Preemergent control of plant species; type: in vivo, Brassica napus; conditions: Brassica napus, pre-emergence, 336 h; 0.25 lb/acre; read-out: percent preemergent control
In short: as §2

sugar beet = assay: Postemergent control of plant species; type: in vivo, Beta saccharifera; conditions: Beta vulgaris, post-emergence, 336 h, read-out: percent postemergent control
In short: as §1

soybean [18] = assay: Preemergent control of plant species; type: in vivo, Glycine max.; conditions: Glycine max, pre-emergence, 336 h; 0.25 lb/acre; read-out: percent preemergent control
In short: as §2

yellow foxtail [19] = assay: Preemergent control of plant species; type: in vivo, Setaria lutescens; conditions: Setaria, pre-emergence, 336 h; 0.25 lb/acre; read-out: percent preemergent control
In short: as §2

wild oats [20] = assay: Preemergent control of plant species; type: in vivo; conditions: Avena fatua, pre-emergence, 336 h; 0.25 lb/acre; read-out: percent preemergent control
In short: as §2

Structure (SMILES)	plant injury at 500 ppm (soybean [1])	pest or weed control at 500 ppm (crabgrass [2])	plant injury at 500 ppm (sorghum)	pest or weed control at 500 ppm (annual morning glory)	pest or weed control at 500 ppm (yellow nutsedge [3])	plant injury at 280.212 g/ha (wheat)	pest or weed control at 500 ppm (yellow foxtail [4])	plant injury at 500 ppm (corn)	pest or weed control at 500 ppm (velvetleaf [5])	pest or weed control at 280.212 g/ha (johnson grass [6])	pest or weed control at 500 ppm (wild oats [7])	pest or weed control at 500 ppm (johnson grass [9])	pest or weed control at 280.212 g/ha (velvetleaf [11])	plant injury at 500 ppm (rape [12])	pest or weed control at 500 ppm (barnyardgrass)	plant injury at 280.212 g/ha (cotton)	plant injury at 500 ppm (rice [14])	plant injury at 280.212 g/ha (rice [15])	pest or weed control at 500 ppm (pigweed [16])	pest or weed control at 500 ppm (jimsonweed)	other results
Cc1cc(C)n2nc(S(=O)(=O)Nc3ccccc3I)nc2n1 [Compound 6]	70%	20%	80%	80%	90%	0%	0%	0%	90%	0%	0%	80%	60%	80%	35%	70%	20%	80%	30%	30%	pest or weed control at 280.212 g/ha (crabgrass [8]): 0%; pest or weed control at 280.212 g/ha (pigweed [10]): 100%; pest or weed control at 280.212 g/ha (yellow nutsedge [13]): 50%; plant injury at 280.212 g/ha (rape [17]): 100%; plant injury at 500 ppm (sugar beet): 90%; plant injury at 280.212 g/ha (soybean [18]): 10%
Cc1cc(C)n2nc(S(=O)(=O)Nc3ccccc3F)nc2n1 [Compound 8]	75%	10%	70%	70%	60%	0%	25%	20%	75%	80%	0%	90%	60%	90%	70%	90%	40%	90%	50%	90%	pest or weed control at 280.212 g/ha (crabgrass [8]): 70%; pest or weed control at 280.212 g/ha (yellow foxtail [19]): 60%; pest or weed control at 280.212 g/ha (pigweed [10]): 95%; pest or weed control at 280.212 g/ha (yellow nutsedge [13]): 75%; pest or weed control at 280.212 g/ha (wild oats [20]): 15%; plant injury at 280.212 g/ha (rape [17]): 100%; plant injury at 500 ppm (sugar beet): 95%; plant injury at 280.212 g/ha (soybean [18]): 95%
Cc1cc(C)n2nc(S(=O)(=O)Nc3ccccc3[N+](=O)[O-])nc2n1 [Compound 12]	80%	25%	75%	100%	90%	0%	20%	10%	95%	80%	0%	55%	30%	100%	80%	95%	25%	10%	100%	70%	pest or weed control at 280.212 g/ha (crabgrass [8]): 10%; pest or weed control at 280.212 g/ha (yellow foxtail [19]): 0%; pest or weed control at 280.212 g/ha (pigweed [10]): 60%; pest or weed control at 280.212 g/ha (yellow nutsedge [13]): 50%; pest or weed control at 280.212 g/ha (wild oats [20]): 0%; plant injury at 280.212 g/ha (rape [17]): 95%; plant injury at 500 ppm (sugar beet): 95%; plant injury at 280.212 g/ha (soybean [18]): 95%
COC(=O)c1cccc(F)c1NS(=O)(=O)c1nc2nc(C)cc(C)n2n1 [Compound 26]	95%	90%	90%	90%	90%	0%	90%	80%	100%	98%	0%	100%	95%	100%	100%	95%	80%	100%	100%	100%	pest or weed control at 280.212 g/ha (crabgrass [8]): 100%; pest or weed control at 280.212 g/ha (yellow foxtail [19]): 100%; pest or weed control at 280.212 g/ha (pigweed [10]): 100%; pest or weed control at 280.212 g/ha (yellow nutsedge [13]): 100%; pest or weed control at 280.212 g/ha (wild oats [20]): 40%; plant injury at 280.212 g/ha (rape [17]): 98%; plant injury at 500 ppm (sugar beet): 100%; plant injury at 280.212 g/ha (soybean [18]): 98%
CCc1cccc(CC)c1NS(=O)(=O)c1nc2nc(C)cc(C)n2n1 [Compound 33]	40%	0%	80%	60%	10%	40%	0%	25%	80%	0%	0%	60%	0%	60%	0%	20%	0%	0%	10%	40%	pest or weed control at 280.212 g/ha (crabgrass [8]): 10%; pest or weed control at 280.212 g/ha (yellow foxtail [19]): 0%; pest or weed control at 280.212 g/ha (pigweed [10]): 10%; pest or weed control at 280.212 g/ha (wild oats [20]): 40%; plant injury at 280.212 g/ha (rape [17]): 80%; plant injury at 500 ppm (sugar beet): 40%; plant injury at 280.212 g/ha (soybean [18]): 10%
CC(=O)N(c1c(Cl)cccc1Cl)S(=O)(=O)c1nc2nc(C)cc(C)n2n1 [Compound 262]	95%	95%	90%	100%	80%	0%	100%	50%	100%	60%	0%	100%	100%	100%	100%	90%	40%	95%	100%	100%	pest or weed control at 280.212 g/ha (yellow foxtail [19]): 95%; pest or weed control at 280.212 g/ha (yellow nutsedge [13]): 100%; pest or weed control at 280.212 g/ha (wild oats [20]): 50%; plant injury at 280.212 g/ha (rape [17]): 100%; plant injury at 500 ppm (sugar beet): 100%; plant injury at 280.212 g/ha (soybean [18]): 100%
